Key:
Rats = assay: Acute Oral toxicity; format: in vivo
Source text: (§1) Generally, the toxicity of tin compounds increases as the organic substituents on the tin atom increase from one to two to three whereas there is a decrease in toxicity with increasing alkyl chain length where the organotin compound is alkyl substituted. However, the extraordinary decrease in toxicity in TOTO due to alkyl chain length is quite unexpected. The relatively low toxicity of TOTO which makes it especially suitable in industrial coating applications is illustrated by the following: […]

Acute Dermal toxicity = format: in vivo
Source text: as §1

Rabbits [1] = assay: Primary Dermal Irritation; format: in vivo
Source text: as §1

Rabbits [2] = assay: Primary Eye Irritation; format: in vivo
Source text: as §1

Salmonella and E. Coli = assay: Mutation Assays Ames/Salmonella and E. Coli; format: cell-based
Source text: as §1

Daphnia = assay: Aquatic Toxicity Daphnia; format: in vivo
Source text: as §1

Flathead Minnow = assay: Aquatic Toxicity Flathead Minnow; format: in vivo
Source text: as §1

[3] = Toxicity of TOTO compared with TBTO; details: in vivo
Source text: as §1

CCCCCCC[CH2][Sn]([CH2]CCCCCCC)([CH2]CCCCCCC)[O][Sn]([CH2]CCCCCCC)([CH2]CCCCCCC)[CH2]CCCCCCC [TOTO, Bis(trioctyltin)oxide]
Acute Oral LD50 (Rats): > 5000 mg/kg
Acute Oral, comment (Rats): Practically Nontoxic
Acute Dermal, comment (Acute Dermal toxicity; No more than Slightly): Slightly
Acute Dermal LD50 (Acute Dermal toxicity; in vivo, topical or ocular): > 2000 mg/kg
Primary Dermal Irritation, comment (Rabbits [1]; rabbits): Slightly Irritating
Primary Dermal Irritation (Rabbits [1]; score out of 8.0, rabbits): 1.75
Primary Eye Irritation, comment (Rabbits [2]; rabbits): Slightly Irritating
Primary Eye Irritation (Rabbits [2]; score out of 110.0, rabbits): 2.6
Mutation Assays (Salmonella and E. Coli): Not Mutagenic
Aquatic Toxicity 48 h LC50 Daphnia (Daphnia; solubility limit): > 87,000 ug/L
Aquatic Toxicity 96 h LC50 Flathead Minnow (Flathead Minnow; solubility limit): > 13,500 ug/L
Toxicity relative to TBTO [3]: significantly less toxic than TBTO

CCC[CH2][Sn]([CH2]CCC)([CH2]CCC)[O][Sn]([CH2]CCC)([CH2]CCC)[CH2]CCC [TBTO, Bis(tributyltin) oxide]
Aquatic Toxicity 48 h LC50 Daphnia (comment, TBTO) (Daphnia): 0.002 µg/mL
Aquatic Toxicity 96 h LC50 Flathead Minnow (comment, TBTO) (Flathead Minnow): 0.05 µg/mL

From patent publication US6124380A, “Metal containing e-coat catalysts optionally with tin catalysts” (priority 1999, dated 2000)
